Experimental data from patent publication US20020137929A1, “1 - (3-heterocyclylphenyl) isothiourea, -isourea, -guanidine and -amidine herbicidal agents” (Intellectual Property Department, BASF Aktiengesellschaft, priority 1998, published 2002).

Assays:
[1] = test system: ABUTH (Velvetleaf); assay: Postemergence herbicidal evaluation; type: in vivo, Abutilon theophrasti; conditions: postemergence
Procedure, shortened: (§1)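 Compound is applied as a foliar spray to seedlings about two weeks old, formulated in equal parts acetone and water with 0.5% TWEEN 20 and delivered at 40 psi to give about 0.0156–0.500 kg per hectare. Injury is rated visually 0–9 after four to five weeks.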

[2] = test system: IPOHE (Morningglory, Ivyleaf); assay: Preemergence herbicidal evaluation; type: in vivo, Ipomoea hederacea; conditions: rated 4-5 weeks after treatment
Procedure, shortened: (§2)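 Preemergence soil application of compound, sprayed in aqueous acetone at rates equivalent to about 0.0156 to 0.500 kg per hectare onto freshly sown cups. Plant response was judged by eye on a 0-9 scale four to five weeks later.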

[3] = test system: MOOVA (Monochoria); assay: Preemergence weed control under flooded paddy conditions; type: in vivo, Monochoria vaginalis; conditions: rated 3-4 weeks after treatment
Procedure, shortened: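 Herbicidal effect is scored visually on a 0-9 scale against an untreated control, three to four weeks after compounds are pipetted into the flood water (1.5 to 3 cm deep) over seeds planted in silt loam at 0.5 cm depth. Rates: about 0.0313 to 0.500 kg/ha.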

[4] = test system: ECHORC (Watergrass (Calif.)); assay: as above; type: in vivo, Echinochloa oryzoides; conditions: rated 3-4 weeks after treatment
Procedure, shortened: (§3)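 Seeds or propagules sown in silt loam kept flooded 1.5-3 cm; compounds in 50/50 acetone/water pipetted into flood water at about 0.0313 to 0.500 kg/ha. Greenhouse; visual 0-9 rating versus untreated control 3-4 weeks after treatment.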

[5] = test system: ZEAMX (Corn, Field); assay: Preemergence herbicidal evaluation; type: in vivo, Zea mays; conditions: rated 4-5 weeks after treatment
Procedure, shortened: as §2

[6] = test system: TRZAWR (Wheat, Winter, cv Riband); assay: Preemergence herbicidal evaluation; type: in vivo, Triticum aestivum; conditions: rated 4-5 weeks after treatment
Procedure, shortened: as §2

[7] = test system: CYPSE (Flatsedge); assay: Postemergence weed control under flooded paddy conditions; type: in vivo, Cyperus serotinus; conditions: postemergence weeds
Procedure, shortened: (§4)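 With weeds 3 to 5 cm tall and rice at the 1.5 to 2.5 leaf stage, containers were flooded and water held 1.5 to 3 cm above soil. Compounds in 50/50 v/v aqueous/acetone went into the flood water at about 0.0313 to 0.500 kg/ha a.i. Effects were visually rated 0–9 against controls after three to four weeks in the greenhouse.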

[8] = test system: SETVI (Foxtail, Green); assay: Postemergence herbicidal evaluation; type: in vivo, Setaria viridis; conditions: postemergence
Procedure, shortened: as §1

[9] = test system: GALAP (Galium); assay: Postemergence herbicidal evaluation; type: in vivo, Galium aparine; conditions: postemergence
Procedure, shortened: as §1

[10] = test system: CYPIR (Rice Flatsedge); assay: Postemergence weed control under flooded paddy conditions; type: in vivo, Cyperus iria; conditions: postemergence weeds
Procedure, shortened: as §4

[11] = test system: ORYSAT (Rice, Tebonnet); assay: Postemergence herbicidal evaluation; type: in vivo, Oryza sativa, (L.) Tebonnet; conditions: postemergence
Procedure, shortened: as §1

[12] = test system: CYPIR (Rice Flatsedge); assay: Preemergence weed control under flooded paddy conditions; type: in vivo, Cyperus iria; conditions: rated 3-4 weeks after treatment
Procedure, shortened: as §3

[13] = test system: SAGPY (Arrowhead (Pygmaea)); assay: Postemergence weed control under flooded paddy conditions; type: in vivo, Sagittaria pygmaea; conditions: postemergence weeds
Procedure, shortened: as §4

[14] = test system: ECHCG (Barnyardgrass); assay: Postemergence herbicidal evaluation; type: in vivo, Echinochloa crus-galli; conditions: postemergence
Procedure, shortened: as §1

[15] = rate 0.1160 kg/ha, 3-4 weeks after treatment
[16] = rate 0.2310 kg/ha, 3-4 weeks after treatment
[17] = rate 0.4630 kg/ha, 3-4 weeks after treatment
[18] = Rate 0.0313 kg/ha, rated 3 to 4 weeks after treatment
[19] = Rate 0.0625 kg/ha, rated 3 to 4 weeks after treatment
[20] = Rate 0.1250 kg/ha, rated 3 to 4 weeks after treatment
[21] = Rate 0.2500 kg/ha, rated 3 to 4 weeks after treatment

CN(C)N1C(=O)CSC1=Nc1cc(-n2c(=O)cc(C(F)(F)F)n(C)c2=O)c(F)cc1Cl [Compound 23, 3-{4-Chloro-5-{[3-(dimethylamino)-4-oxo-2-thiazolidinylidine]amino}-2-fluorophenyl}-1-methyl-6-(trifluoromethyl)-2,4(1H,3H)-pyrimidinedione]
4.0: ABUTH herbicidal rating ([1]; rate 0.0315 kg/ha) | Herbicidal rating ECHORC ([4]; 0.1160 kg/ha) | Herbicidal rating ECHORC ([4]; 0.2310 kg/ha) | Herbicidal rating ECHORC ([4]; 0.4630 kg/ha) | SETVI herbicidal rating ([8]; rate 0.0315 kg/ha) | SETVI herbicidal rating ([8]; rate 0.0630 kg/ha)
0.0: IPOHE preemergence herbicidal rating ([2]; rate 0.0156 kg/ha) | IPOHE preemergence herbicidal rating ([2]; rate 0.0313 kg/ha) | ZEAMX preemergence herbicidal rating ([5]; rate 0.0156 kg/ha) | TRZAWR preemergence herbicidal rating ([6]; rate 0.0156 kg/ha) | TRZAWR preemergence herbicidal rating ([6]; rate 0.0313 kg/ha) | Herbicidal rating CYPSE [7, 15] | Herbicidal rating CYPSE [7, 16] | Herbicidal rating CYPSE [7, 17] | Herbicidal rating CYPIR [10, 15] | Herbicidal rating CYPIR [10, 16] | Herbicidal rating CYPIR [10, 17] | Herbicidal rating CYPIR ([12]; 0.1160 kg/ha) | Herbicidal rating CYPIR ([12]; 0.2310 kg/ha) | Herbicidal rating CYPIR ([12]; 0.4630 kg/ha) | Herbicidal rating SAGPY [13, 15] | Herbicidal rating SAGPY [13, 16] | ECHCG herbicidal rating ([14]; rate 0.0158 kg/ha)
1.0: IPOHE preemergence herbicidal rating ([2]; rate 0.0625 kg/ha) | ZEAMX preemergence herbicidal rating ([5]; rate 0.0313 kg/ha) | TRZAWR preemergence herbicidal rating ([6]; rate 0.0625 kg/ha)
9.0: IPOHE preemergence herbicidal rating ([2]; rate 0.2500 kg/ha) | Herbicidal rating MOOVA ([3]; 0.1160 kg/ha) | Herbicidal rating MOOVA ([3]; 0.2310 kg/ha) | Herbicidal rating MOOVA ([3]; 0.4630 kg/ha) | GALAP herbicidal rating ([9]; rate 0.0630 kg/ha)
7.0: ZEAMX preemergence herbicidal rating ([5]; rate 0.2500 kg/ha) | TRZAWR preemergence herbicidal rating ([6]; rate 0.2500 kg/ha) | GALAP herbicidal rating ([9]; rate 0.0315 kg/ha)
4.5: ORYSAT herbicidal rating ([11]; rate 0.0630 kg/ha)
5.0: ABUTH herbicidal rating ([1]; rate 0.0630 kg/ha) | IPOHE preemergence herbicidal rating ([2]; rate 0.1250 kg/ha) | ZEAMX preemergence herbicidal rating ([5]; rate 0.1250 kg/ha) | TRZAWR preemergence herbicidal rating ([6]; rate 0.1250 kg/ha)
3.0: ABUTH herbicidal rating ([1]; rate 0.0158 kg/ha) | GALAP herbicidal rating ([9]; rate 0.0158 kg/ha) | Herbicidal rating SAGPY [13, 17]
2.5: ORYSAT herbicidal rating ([11]; rate 0.0315 kg/ha)
2.0: ZEAMX preemergence herbicidal rating ([5]; rate 0.0625 kg/ha) | SETVI herbicidal rating ([8]; rate 0.0158 kg/ha) | ORYSAT herbicidal rating ([11]; rate 0.0158 kg/ha) | ECHCG herbicidal rating ([14]; rate 0.0315 kg/ha) | ECHCG herbicidal rating ([14]; rate 0.0630 kg/ha)

C#CCOC(=O)CC1SC(=Nc2cc(-n3c(=O)cc(C(F)(F)F)n(C)c3=O)c(F)cc2Cl)N(CC=C)C1=O (stereo not drawn) [Compound 67, 2-Propynyl 3-allyl-2-{{2-chloro-5-[3,6-dihydro-3-methyl-2,6-dioxo-4-(trifluoromethyl)-1(2H)-pyrimidinyl]-4-fluorophenyl}imino}-4-oxo-5-thiazolidineacetate]
8.0: Herbicidal rating CYPIR [10, 21] | CYPIR herbicidal effect rating ([12]; 0.2500 kg/ha)
2.9: GALAP herbicidal rating ([9]; rate 0.0158 kg/ha)
9.0: ABUTH herbicidal rating ([1]; rate 0.0315 kg/ha) | ABUTH herbicidal rating ([1]; rate 0.0630 kg/ha) | MOOVA herbicidal effect rating ([3]; 0.0313 kg/ha) | MOOVA herbicidal effect rating ([3]; 0.0625 kg/ha) | MOOVA herbicidal effect rating ([3]; 0.1250 kg/ha) | MOOVA herbicidal effect rating ([3]; 0.2500 kg/ha) | SETVI herbicidal rating ([8]; rate 0.0158 kg/ha) | SETVI herbicidal rating ([8]; rate 0.0315 kg/ha) | SETVI herbicidal rating ([8]; rate 0.0630 kg/ha)
1.0: Preemergence herbicidal rating ZEAMX ([5]; rate 0.0625 kg/ha) | Preemergence herbicidal rating ZEAMX ([5]; rate 0.1250 kg/ha) | Preemergence herbicidal rating ZEAMX ([5]; rate 0.2500 kg/ha) | Preemergence herbicidal rating TRZAWR ([6]; rate 0.1250 kg/ha) | Preemergence herbicidal rating TRZAWR ([6]; rate 0.2500 kg/ha)
3.0: Preemergence herbicidal rating IPOHE ([2]; rate 0.1250 kg/ha) | Herbicidal rating CYPSE [7, 19] | Herbicidal rating CYPSE [7, 20] | Herbicidal rating CYPSE [7, 21] | ECHCG herbicidal rating ([14]; rate 0.0158 kg/ha)
2.0: Preemergence herbicidal rating IPOHE ([2]; rate 0.0625 kg/ha)
4.5: ORYSAT herbicidal rating ([11]; rate 0.0315 kg/ha)
7.0: ECHCG herbicidal rating ([14]; rate 0.0630 kg/ha)
5.0: ABUTH herbicidal rating ([1]; rate 0.0158 kg/ha) | ECHORC herbicidal effect rating ([4]; 0.1250 kg/ha) | ECHORC herbicidal effect rating ([4]; 0.2500 kg/ha) | GALAP herbicidal rating ([9]; rate 0.0630 kg/ha) | Herbicidal rating CYPIR [10, 18] | Herbicidal rating CYPIR [10, 19] | Herbicidal rating CYPIR [10, 20] | ORYSAT herbicidal rating ([11]; rate 0.0630 kg/ha) | CYPIR herbicidal effect rating ([12]; 0.0313 kg/ha) | CYPIR herbicidal effect rating ([12]; 0.0625 kg/ha) | CYPIR herbicidal effect rating ([12]; 0.1250 kg/ha)
6.0: Preemergence herbicidal rating IPOHE ([2]; rate 0.2500 kg/ha) | GALAP herbicidal rating ([9]; rate 0.0315 kg/ha) | Herbicidal rating SAGPY [13, 21] | ECHCG herbicidal rating ([14]; rate 0.0315 kg/ha)
0.0: Preemergence herbicidal rating IPOHE ([2]; rate 0.0156 kg/ha) | Preemergence herbicidal rating IPOHE ([2]; rate 0.0313 kg/ha) | ECHORC herbicidal effect rating ([4]; 0.0313 kg/ha) | Preemergence herbicidal rating ZEAMX ([5]; rate 0.0156 kg/ha) | Preemergence herbicidal rating ZEAMX ([5]; rate 0.0313 kg/ha) | Preemergence herbicidal rating TRZAWR ([6]; rate 0.0156 kg/ha) | Preemergence herbicidal rating TRZAWR ([6]; rate 0.0313 kg/ha) | Preemergence herbicidal rating TRZAWR ([6]; rate 0.0625 kg/ha) | Herbicidal rating CYPSE [7, 18] | Herbicidal rating SAGPY [13, 18]
4.0: ECHORC herbicidal effect rating ([4]; 0.0625 kg/ha) | ORYSAT herbicidal rating ([11]; rate 0.0158 kg/ha) | Herbicidal rating SAGPY [13, 19] | Herbicidal rating SAGPY [13, 20]
